According to PMC8426295, “Cytotoxic and radiosensitising effects of a novel thioredoxin reductase inhibitor in breast cancer” (Investigational New Drugs, 2021):

Key:
MCF-7 cells [1] = assay: Drug-radiation combination clonogenic survival (LQ model); type: cell-based, human; details: 1000 nM IQ9 for 4 h followed by irradiation
Experimental: (§1) 5 × 10^5 cells were seeded in T25 cm^2 tissue culture flasks and incubated overnight. The sub-confluent cells were then treated either for 4-h or 48-h with IQ9 (0–5000 nM) or doxorubicin (10–20 nM). Following drug treatment, cells were collected, counted, and plated at low-density, in triplicate, and incubated, at 37 °C, 5% CO2, undisturbed, for 2 weeks for TNBC cells and 3 weeks for luminal cells, for colony formation. Colonies were fixed (50% methanol in 0.9% saline solution) and stained (0.5% crystal violet solution). Colonies consisting of more than 50 cells were confirmed by microscopy and scored as survivors. The plating efficiency (PE) was calculated as numbers of colonies formed/ numbers of cells plated. For single-agent treatment, drug or radiation, the surviving fraction was calculated as: number of colonies formed/ (numbers of cell plated x PE). For drug radiation combination experiments, cytotoxicity of drug treatment was accounted for by calculating surviving fraction as: number of colonies formed from each radiation dose/ (number of cells plated × PE × surviving fraction of drug-treated cell at 0 Gy).
(§2) Sub-confluent cells were irradiated with a dose of 2, 4, 6, or 8 Gy (at a dose rate of 0.87 Gy/min) using an RS225 x-ray cabinet irradiation system (Xstrahl Limited, UK), fitted with a 0.5 mm Cu filter and run at 195 kV, 10 mA. Following irradiation, cells were immediately trypsinised and plated for clonogenic survival. Sham-irradiated cells were used as controls. Dose-response curves were plotted as a function of radiation dose on a log/ linear plot. Clonogenic survival calculation software (CS-CAL), developed by the Translational Radiation Oncology Group, German Cancer Research Centre was used to fit survival curves to the linear-quadratic (LQ) model (equation: […] ). The software can be accessed online at http://angiogenesis.dkfz.de/oncoexpress/software/cs-cal/. For drug-radiation combinations, cells were treated with 1000 nM IQ9 (2500 nM for T47D) for 4 h followed by irradiation (0–8 Gy). For 48 h drug treatment experiments, MDA-MB-231 and T47D cells were treated with clonogenic IC50 concentrations of IQ9 before irradiation. The sensitiser enhancement ratio (SER), calculated by dividing the X-ray dose causing 1% cell survival in the absence of drug treatment by the X-ray dose leading to 1% cell survival in the presence of drug treatment, was used to evaluate the degree of radiosensitisation.
(§3) IC50 values were calculated from dose-response curves using an SPSS regression model between inhibition ratios and concentration gradients. The radiobiological parameters: alpha (α), beta (β), α/β ratio, and surviving fraction at 2 Gy (SF2) were extracted from the survival curves fitted using the LQ model. All results are presented as average ± standard deviation (SD) of three independent experiments, each performed in triplicate. Data were analysed using the student T-test and ANOVA one-way test. Statistical analysis was performed using SPSS 23.0 software. Values of P < 0.05 were considered statistically significant.

MDA-MB-231 cells [2] = assay: as above; type: cell-based, human; details: for SER (sensitiser enhancement ratio): at 1% cell survival
Experimental: as §1, §2, §3

TrxR = target: T1, TrxR (Homo sapiens, UniProt Q16881); assay: Thioredoxin reductase activity assay (insulin reduction) on lysates of drug-treated breast cancer cells; type: cell-based
T1 sequence (Q16881 1-649): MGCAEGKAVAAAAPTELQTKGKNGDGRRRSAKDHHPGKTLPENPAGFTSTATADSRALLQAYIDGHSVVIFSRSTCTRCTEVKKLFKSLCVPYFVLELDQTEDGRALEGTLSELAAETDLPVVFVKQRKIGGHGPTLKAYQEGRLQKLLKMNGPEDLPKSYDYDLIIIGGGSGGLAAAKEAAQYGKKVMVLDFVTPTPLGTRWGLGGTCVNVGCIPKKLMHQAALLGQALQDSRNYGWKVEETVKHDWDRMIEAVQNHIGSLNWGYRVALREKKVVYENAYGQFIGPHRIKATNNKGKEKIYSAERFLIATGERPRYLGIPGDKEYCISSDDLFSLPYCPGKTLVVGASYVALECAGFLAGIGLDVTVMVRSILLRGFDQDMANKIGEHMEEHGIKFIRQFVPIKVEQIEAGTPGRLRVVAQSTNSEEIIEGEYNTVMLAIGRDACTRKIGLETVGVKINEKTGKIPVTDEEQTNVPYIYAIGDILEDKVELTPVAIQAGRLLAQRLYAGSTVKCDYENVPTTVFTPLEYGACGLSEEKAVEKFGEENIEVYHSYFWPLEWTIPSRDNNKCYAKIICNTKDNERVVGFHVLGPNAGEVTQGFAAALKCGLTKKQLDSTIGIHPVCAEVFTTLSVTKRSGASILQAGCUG
Experimental: TrxR enzyme activity was assessed using an insulin reduction assay. Briefly, 2 × 10^6 cells were seeded, in triplicate, in 75c m^2 tissue culture flasks. After 24 h, sub-confluent cells were treated with either IQ9 (0–1000 nM) or 1000 nM auranofin (as a positive control) for 4 or 48 h, then trypsinised, washed, and resuspended in M-PER™ Mammalian Protein Extraction Reagent (ThermoFisher, USA) supplemented with 1X Halt protease inhibitor and EDTA. Protein concentration was determined using the Bradford assay. 80 μg of protein lysates isolated from each treatment conditions and reaction mix (HE buffer (100 mM HEPES pH 7.2, 5 mM EDTA), 20 μM Trx, 1.7 mM insulin, 10 mM β-NADPH) were added to the 96-well plate and incubated for 1 h at 37 °C. The reaction was stopped by adding stop buffer containing 6 M guanidine hydrochloride, 50 mM Tris, and 10 mM DTNB (Sigma, UK), with a final pH of 8.0. The plate was read at room temperature using a BMG Fluostar Optima Microplate Reader at 412 nm wavelength. The TrxR activity was expressed as the percentage of control, no drug-treated.

MCF-7 cells [3] = assay: Clonogenic survival assay; type: cell-based; details: Homo sapiens
Experimental: as §1, §3

MDA-MB-468 cells = assay: Clonogenic survival assay; type: cell-based; details: Homo sapiens
Experimental: as §1, §3

T47D cells = assay: Clonogenic survival assay; type: cell-based; details: Homo sapiens
Experimental: as §1, §3

MDA-MB-231 cells [4] = assay: Clonogenic survival assay; type: cell-based; details: Homo sapiens
Experimental: as §1, §3

[5] = 1000 nM IQ9 for 4 h followed by irradiation
[6] = clonogenic IC50 concentration of IQ9 for 48 h before irradiation

In the case of `COC1=CC(=O)c2c(c(COc3c(F)cc(F)cc3F)cn2C)C1=O` [IQ9], the “SF2 (surviving fraction at 2 Gy)” value (MCF-7 cells [1]) is reported as 0.24 ± 0.10, the α (MCF-7 cells [1]) is reported as 0.58 ± 0.18 Gy^−1 and the “α/β Ratio” value (MCF-7 cells [1]) is reported as 7.25 ± 3.19. For the same molecule, the β (MCF-7 cells [1]) was 0.08 ± 0.02 Gy^−2, the “SER (sensitiser enhancement ratio)” value (MCF-7 cells [1]; at 1% cell survival) was 1.08 and the “SF2 (surviving fraction at 2 Gy)” value (MDA-MB-231 cells [2]; [5]) was 0.21 ± 0.02. The α (MDA-MB-231 cells [2]; [5]) was 0.70 ± 0.17 Gy^−1, the “α/β Ratio” value (MDA-MB-231 cells [2]; [5]) was 11.67 ± 3.63 and the β (MDA-MB-231 cells [2]; [5]) was 0.06 ± 0.01 Gy^−2. For the same molecule, the “SER (sensitiser enhancement ratio)” value (MDA-MB-231 cells [2]; [5]) was 1.20, the “radiosensitivity (in words)” value (MDA-MB-231 cells [2]; IQ9 exposure 48 h before irradiation) was “no significant increase in radiosensitivity” and the “SF2 (surviving fraction at 2 Gy)” value (MDA-MB-231 cells [2]; [6]) was 0.22 ± 0.08. For the same molecule, the α (MDA-MB-231 cells [2]; [6]) was 0.85 ± 0.04 Gy^−1, the “α/β Ratio” value (MDA-MB-231 cells [2]; [6]) was 25.60 ± 4.62 and the β (MDA-MB-231 cells [2]; [6]) was 0.03 ± 0.01 Gy^−2. The “SER (sensitiser enhancement ratio)” value (MDA-MB-231 cells [2]; [6]) was 1.07, the “inhibition of TrxR activity” value (TrxR; 1000 nM, 4 h, all TNBC cell lines) was “complete inhibition” and the inhibition at 1 µM (TrxR; 1000 nM, 4 h, luminal cell lines) was roughly 70%. The “inhibition in TrxR activity” value (TrxR; 48 h exposure, T47D) was “no significant inhibition”, the IC50 (MCF-7 cells [3]; MCF7, 4 h) was 340.5 ± 2.1 nM and the IC50 (MCF-7 cells [3]; MCF7, 48 h) was 601 ± 114 nM. The IC50 (MDA-MB-468 cells; MDA-MB-468, 4 h) was 502 ± 171 nM, the IC50 (MDA-MB-468 cells; MDA-MB-468, 48 h) was 916 ± 173 nM and the IC50 (T47D cells; 4 h) was 2070 ± 53.7 nM. For the same molecule, the IC50 (T47D cells; 48 h) was 1880 ± 298 nM, the IC50 (MDA-MB-231 cells [4]; MDA-MB-231, 4 h) was 565 ± 29.5 nM and the IC50 (MDA-MB-231 cells [4]; MDA-MB-231, 48 h) was 324 ± 20.1 nM.
